Source: PMC10451377, “Rationally Designed Pyrimidine Compounds: Promising Novel Antibiotics for the Treatment of Staphylococcus aureus-Associated Bovine Mastitis” (Antibiotics, 2023)
In brackets after ≈: the same amount, converted by molar mass. Like-named read-outs stand apart in the source and are kept apart here.

What was measured:
[1] = test system: Bovine S. aureus; experiment: Susceptibility of isolate panel (MIC50, MIC90, range); assay type: cell-based, Staphylococcus aureus
Source text: (§1) Reference strains for this study (S. aureus ATCC 29213, ATCC 29740 [bovine mastitis strain Newbould], S. epidermidis ATCC 12228, E. coli ATCC 35695, E. faecalis ATCC 29212) were obtained from the American Type Culture Collection (ATCC, Rockville, MD). S. aureus strains CMRSA-10 and CMRSA-2 were obtained from the Laboratoire de santé publique du Québec (LSPQ, Sainte-Anne-de-Bellevue, QC, Canada) and are Canadian CA-MRSA USA-300 and HA-MRSA USA-100 clones, respectively. The strain E. coli imp4213 (lptD), used as a control in MIC assays, is a derivative of E. coli ATCC 35695 (E. coli MC4100) with an increased membrane permeability. […] Other MRSA strains used in this study are clinical isolates of human origin obtained from the microbiology laboratory of the Centre Hospitalier Universitaire de Sherbrooke (CHUS, Sherbrooke, QC, Canada). Bovine mastitis strains (S. aureus, S. chromogenes, S. haemolyticus, S. hominis, S. simulans) were obtained from the Canadian Bovine Mastitis and Milk Quality Research Network (CBRQMN, St-Hyacinthe, QC, Canada). Among these strains, S. aureus 2117 is a high producer of biofilm and was used in the biofilm-eradication assay. S. epidermidis isolates were provided by Centre de Recherche en Infectiologie (CRI) de Québec (Québec, QC, Canada).
(§2) The antibacterial activity of the most promising compound, PC206, was also evaluated against larger groups of clinical isolates of human and animal origin. The MIC50 and MIC90 values represented the concentrations of drug required to inhibit the growth of 50% and 90% of the bacterial strains tested, respectively.

[2] = test system: MRSA; experiment: as above; assay type: cell-based, Staphylococcus aureus
Source text: as §1, §2

[3] = test system: S. haemolitycus; experiment: as above; assay type: cell-based, S. haemolyticus
Source text: as §1, §2

[4] = test system: S. chromogenes; experiment: as above; assay type: cell-based
Source text: as §1, §2

[5] = test system: S. epidermidis; experiment: as above; assay type: cell-based
Source text: as §1, §2

[6] = test system: S. hominis; experiment: as above; assay type: cell-based
Source text: as §1, §2

[7] = test system: S. simulans; experiment: as above; assay type: cell-based
Source text: as §1, §2

[8] = test system: Staphylococcus aureus CMRSA-10; experiment: Broth microdilution MIC; assay type: cell-based; details: CMRSA10, read-out: Broth Microdilution MIC
Source text: as §1

[9] = test system: Staphylococcus aureus CMRSA-2; experiment: Broth microdilution MIC; assay type: cell-based; details: CMRSA2, read-out: Broth Microdilution MIC
Source text: as §1

[10] = test system: Escherichia coli ΔlptD4213; experiment: microbe, parasite or virus in culture; assay type: cell-based; details: read-out: Broth Microdilution MIC
Source text: as §1

[11] = test system: Bacillus subtilis xpt-lacZ; experiment: Broth microdilution MIC; assay type: cell-based; details: read-out: Broth Microdilution MIC
[12] = test system: S. aureus bovine strain 2117 embedded in preformed biofilm; experiment: Biofilm-eradication test (MBEC assay); assay type: cell-based, Staphylococcus aureus; details: concentrations up to 512 µg/mL
Method: The viability of bacteria in preformed biofilms treated with PC206 was evaluated using the MBEC assay™ system (formerly the Calgary Biofilm Device). The device consists of a plastic lid with 96 pegs and a 96-well plate. […] Plates were incubated at 35 °C for 24 h with agitation (120 rpm). […] The pegs were washed three times with PBS and the biofilm was sonicated for 10 min, and then transferred into a new 96-well base plate. The 96-well plate was centrifuged for 5 min at 180 g to recover the detached bacteria.

[13] = test system: Staphylococcus aureus ATCC 29213; experiment: Broth microdilution MIC; details: ATCC29213, read-out: Broth Microdilution MIC
[14] = test system: Staphylococcus epidermidis ATCC 12228; experiment: Broth microdilution MIC; details: ATCC12228, read-out: Broth Microdilution MIC
[15] = test system: Enterococcus faecalis ATCC 29212; experiment: Broth microdilution MIC; details: ATCC29212, read-out: Broth Microdilution MIC
[16] = test system: Escherichia coli ATCC 35695; experiment: Broth microdilution MIC; details: ATCC35695, read-out: Broth Microdilution MIC

With `CC[C@@H]1CCN[C@H](C(=O)N[C@@H]([C@H]2O[C@H](SC)[C@H](O)[C@@H](O)[C@H]2O)[C@H](C)Cl)C1` [PIR, pirlimycin] the MIC50 ([1]; Bovine S. aureus, 48 isolates) was 0.25 µg/mL (≈ 0.608 µM), the MIC90 ([1]; Bovine S. aureus, 48 isolates) was 0.5 µg/mL (≈ 1.22 µM) and the “MIC Range” value ([1]; Bovine S. aureus, 48 isolates) was 0.12 to 1 µg/mL. The MIC50 ([2]; 42 isolates) was over 64 µg/mL, the MIC90 ([2]; 42 isolates) was over 64 µg/mL and the MIC50 ([3]; S. haemolitycus, 10 isolates) was 0.25 µg/mL (≈ 0.608 µM). For the same compound, the MIC90 ([3]; S. haemolitycus, 10 isolates) was over 16 µg/mL, the MIC50 ([4]; S. chromogenes, 5 isolates) was 0.06 µg/mL (≈ 0.146 µM) and the MIC90 ([4]; S. chromogenes, 5 isolates) was 1 µg/mL (≈ 2.43 µM). For the same compound, the “MIC Range” value ([4]; S. chromogenes, 5 isolates) was 0.06 to 2 µg/mL, the MIC50 ([5]; S. epidermidis, 10 isolates) was 0.12 µg/mL (≈ 0.292 µM) and the MIC90 ([5]; S. epidermidis, 10 isolates) was over 16 µg/mL. The MIC50 ([6]; S. hominis, 10 isolates) was 1 µg/mL (≈ 2.43 µM), the MIC90 ([6]; S. hominis, 10 isolates) was over 16 µg/mL and the MIC50 ([7]; S. simulans, 5 isolates) was 0.12 µg/mL (≈ 0.292 µM). The MIC90 ([7]; S. simulans, 5 isolates) was 0.25 µg/mL (≈ 0.608 µM) and the “MIC Range” value ([7]; S. simulans, 5 isolates) was 0.12 to 0.25 µg/mL.
`CN[C@H](CC(C)C)C(=O)N[C@H]1C(=O)N[C@@H](CC(N)=O)C(=O)N[C@H]2C(=O)N[C@H]3C(=O)N[C@H](C(=O)N[C@H](C(=O)O)c4cc(O)cc(O)c4-c4cc3ccc4O)[C@H](O)c3ccc(c(Cl)c3)Oc3cc2cc(c3O[C@@H]2O[C@H](CO)[C@@H](O)[C@H](O)[C@H]2O[C@H]2C[C@](C)(N)[C@H](O)[C@H](C)O2)Oc2ccc(cc2Cl)[C@H]1O` [VAN, vancomycin] was tested, and the MIC [8] was 1 µg/mL (≈ 0.69 µM), the MIC [9] was 1 µg/mL (≈ 0.69 µM) and the MIC [10] was 1 µg/mL (≈ 0.69 µM). For the same compound, the MIC [11] was 0.25 µg/mL (≈ 0.173 µM), the “MIC Range” value ([1]; Bovine S. aureus, 48 isolates) was 0.25 to 1 µg/mL and the MIC50 ([1]; Staphylococcus aureus) was 0.5 µg/mL (≈ 0.345 µM). For the same compound, the MIC90 ([1]; Staphylococcus aureus) was 0.5 µg/mL (≈ 0.345 µM), the “MIC Range” value ([2]; 42 isolates) was 0.5 to 4 µg/mL and the MIC50 ([2]; Staphylococcus aureus) was 1 µg/mL (≈ 0.69 µM). The MIC90 ([2]; Staphylococcus aureus) was 4 µg/mL (≈ 2.76 µM), the “MIC Range” value ([3]; S. haemolitycus, 10 isolates) was 0.25 to 4 µg/mL and the MIC50 ([3]; Staphylococcus haemolyticus) was 2 µg/mL (≈ 1.38 µM). For the same compound, the MIC90 ([3]; Staphylococcus haemolyticus) was 4 µg/mL (≈ 2.76 µM), the MIC50 [4] was 0.5 µg/mL (≈ 0.345 µM) and the MIC90 [4] was 0.5 µg/mL (≈ 0.345 µM). The “MIC Range” value ([4]; S. chromogenes, 5 isolates) was 0.5 µg/mL (≈ 0.345 µM), the “MIC Range” value ([5]; S. epidermidis, 10 isolates) was 0.5 to 1 µg/mL and the MIC50 ([5]; Staphylococcus epidermidis) was 1 µg/mL (≈ 0.69 µM). The MIC90 ([5]; Staphylococcus epidermidis) was 1 µg/mL (≈ 0.69 µM), the “MIC Range” value ([6]; S. hominis, 10 isolates) was 0.25 to 1 µg/mL and the MIC50 ([6]; Staphylococcus hominis) was 0.5 µg/mL (≈ 0.345 µM). The MIC90 ([6]; Staphylococcus hominis) was 0.5 µg/mL (≈ 0.345 µM), the “MIC Range” value ([7]; S. simulans, 5 isolates) was 0.5 µg/mL (≈ 0.345 µM) and the MIC50 ([7]; Staphylococcus simulans) was 0.5 µg/mL (≈ 0.345 µM). The MIC90 ([7]; Staphylococcus simulans) was 0.5 µg/mL (≈ 0.345 µM), the “Effect on viable counts in preformed biofilm” value [12] was “did not impact viable counts” and the MIC [13] was 0.5 µg/mL (≈ 0.345 µM). The MIC [14] was 1 µg/mL (≈ 0.69 µM), the MIC [15] was 4 µg/mL (≈ 2.76 µM) and the MIC [16] was over 128 µg/mL.
